# Source: patent EP1352247B1, “ASSAY METHODS FOR IDENTIFYING COMPOUNDS WHICH MAY PROTECT STRATIFIED SQUAMOUS EPITHELIUM AGAINST DAMAGE BY NOXIOUS SUBSTANCES” (The Administrators of the Tulane Educational Fund, priority 2000, dated 2002)
# Columns and labels:
# [1] = biological target: T1, extracellular domain of human Uvomorulin/E-Cadherin (Homo sapiens, UniProt P12830); assay: Human E-cadherin EIA kit: competition with Mab binding to the extracellular domain of E-cadherin; settings: for % Binding: Mab binding vs vehicle control = 100
# T1 construct: the approximately 80 kD extracellular domain of Uvomorulin/E-Cadherin provided in the E-cadherin EIA kit; purchased Zymed Laboratories, San Francisco, CA
# T1 sequence (P12830 155-709 limits assumed): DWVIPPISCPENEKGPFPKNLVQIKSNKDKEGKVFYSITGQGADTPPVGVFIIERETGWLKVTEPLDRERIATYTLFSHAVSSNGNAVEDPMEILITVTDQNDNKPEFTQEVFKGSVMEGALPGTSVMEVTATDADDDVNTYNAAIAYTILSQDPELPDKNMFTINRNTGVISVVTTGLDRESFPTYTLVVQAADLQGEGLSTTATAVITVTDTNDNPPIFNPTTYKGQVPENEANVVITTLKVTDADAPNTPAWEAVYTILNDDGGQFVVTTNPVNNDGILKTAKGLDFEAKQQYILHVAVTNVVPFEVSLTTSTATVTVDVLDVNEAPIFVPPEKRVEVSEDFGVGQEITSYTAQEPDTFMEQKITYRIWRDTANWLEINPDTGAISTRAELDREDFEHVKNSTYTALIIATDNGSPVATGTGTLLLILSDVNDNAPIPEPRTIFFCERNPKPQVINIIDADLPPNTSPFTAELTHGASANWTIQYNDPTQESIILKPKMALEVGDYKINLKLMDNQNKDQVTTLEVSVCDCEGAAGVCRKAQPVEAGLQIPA
# Excerpt: The kit enables the antigen to be exposed to agents or antibodies prior to exposure to the standard Mab to the extracellular domain of Uvomorulin/E-cadherin. The ability of the agent or antibody to block the binding of the Mab to the extracellular domain of Uvomorulin/E-cadherin can then be used to determine if competition for binding sites on the antigen has occurred. Comparative binding is based on the quantity of binding observed when the Mab to Uvomorulin/E-cadherin is placed in contact with antigen in the absence of prior exposure to test agent or antibody. The experimental control for test agents is vehicle (normal Ringer solution) and for monoclonal or polyclonal antibodies is an equivalent amount of nonspecific immune serum globulin (IgG). The quantity of binding of the Mab to Uvomorulin/E-cadherin to antigen in the absence of test agent or test antibody is labeled as control and whose value is normalized to 100%.
# The Human E-cadherin EIA kit (Zymed Laboratories, San Francisco, CA) was used as in the method described in Example 5 to determine binding of test compounds, SITS, SOS, CDDD-1192, CDDD-1193 and 1,3-benzene disulfonic acid (1,3-BDSA) to the approximately 80 kD extracellular domain of Uvomorulin/E-Cadherin provided in the E-cadherin EIA kit. This was done by adding the extracellular domain of human Uvomorulin/E-Cadherin to a solution with varying concentrations of the compounds in the nanomolar to millimolar range or with vehicle (control, normal Ringer solution) for […]. Following incubation for 2 hrs, the solution is added to a solid phase microtiter plate, provided in the EIA kit, to which a mouse monoclonal anti-human Uvomorulin/E-cadherin antibody (Zymed Laboratories, San Francisco, CA) is bound. This permits antigen with epitopes unoccupied by test compound to bind to the plate. After washing the plate with Tris buffer containing 0.1 % Tween-20 (Promega, Madison, Wisconsin) and 5 mM calcium chloride, the second mouse monoclonal anti-human Uvomorulin/E-cadherin antibody labeled with peroxidase is used to tag the bound antigen. After an additional incubation for 1 hr and washing with Tris buffer, the peroxidase is detected with substrate (hydrogen peroxide and tetramethyl-benzidine in buffered solution, as included in the EIA test kit) by incubating for 15 min at room temperature and stopping of the reaction with 1N […]. […] The amount of Uvomorulin/E-cadherin is quantitated by measuring absorbance at 450 nm within an hour following development using an EIA plate reader (Vmax Plate Reader, Molecular Devices, Sunnyvale, CA). The degree of binding of a compound to the extracellular domain of Uvomorulin/E-cadherin is determined by the reduction in antigen detection in the plate exposed to test compound compared to that for the control plate (100%) where no compound was present (Table 2).
# [2] = system: esophageal epithelium; settings: cited from earlier work
# [3] = system: rabbit esophageal epithelium
# Procedure: Sections of rabbit esophageal epithelium, mounted in Ussing chambers and stabilized for 45 min, were exposed both luminally and serosally to calcium-free solution containing EDTA, 3 mM.
# Sections of rabbit esophageal epithelium were mounted in Ussing chambers and exposed luminally to trypsin, 0.01%, in the presence or absence of a calcium-free bathing solution.
# Sections of rabbit esophageal epithelium were mounted in Ussing chambers and exposed luminally to either SITS, 4 mM, or vehicle (Ringer) as control for 30 min.
# [4] = system: rabbit esophageal epithelium; assay: Junctional resealing (recovery of R after calcium restoration or return to isoosmolality) in Ussing chambers; format: cell-based; settings: luminal 4 mM for 30 min and during calcium-free period; after restoration of calcium (0 mM SITS), n=3
# Excerpt: When calcium-containing (normal Ringer) solution was restored to the bathing solutions after 1, 2, or 4 hrs of calcium-free exposure, there was a progressive return of R toward initial baseline values, with complete reversibility observed for tissue exposed to calcium-free solution for 1 hr and 2 hr exposures and an 80% recovery in R for tissue exposed to calcium-free for 4 hrs within 1 hr of restoring calcium to the baths.
# Sections of rabbit esophageal epithelium prepared as in Example 1 were exposed luminally and serosally to a calcium-free solution containing 3 mM EDTA to open the junctions as shown by the progressive decline in R to 60±4% and 65±4% of initial R for experimental and control tissues, respectively, by 2 hrs (n = 8 for each group, p > 0.05). Tissues were then treated luminally for 20 min with either 10 µg/ml of a monoclonal antibody (Mab) to Uvomorulin/E-cadherin (Sigma Chemical, St. Louis, MO) or, as control, to 10 µg/ml of nonspecific immune serum globulin (IgG). Following exposure to Mab or IgG, a calcium-containing (normal Ringer) solution was restored to the bathing solutions and the recovery of R monitored over time.
# The intercellular junctions of stratified squamous epithelium can also be opened by exposure to hypertonic saline. […]
structure (smiles),measurement,setting,value
"O=S(=O)(O)c1cccc(S(=O)(=O)O)c1 [1,3 BDSA, 1,3-benzene disulfonic acid]",% Binding,[1]; agent 4 mM,104±3%
same,effect against acid injury,"[2]; 4 mM, as shown in U.S. Patent No. 5,189,056 and 5,374,537",ineffective against acid injury
"O=S(=O)(O)OCC(OS(=O)(=O)O)C(Oc1ccccc1)c1ccc(N=C=S)cc1 (centres unmarked) [CDDD-1192, disodium 3-(4-isothiocyanatophenyl)-3 phenoxypropane-1,2-disulfate]",% Binding,[1]; agent 0.4 uM,103±6%
same,% Binding,[1]; agent 4 mM,77±13 %
"O=S(=O)(O)OCC(OS(=O)(=O)O)C(Oc1ccc(N=C=S)cc1)c1ccc(N=C=S)cc1 (centres unmarked) [CDDD-1193, disodium 3-(4-isothiocyanatophenoxy)-3-(4-isothiocyanatophenyl)propane-1,2-disulfate]",% Binding,[1]; agent 40 nM,110±6%
same,% Binding,[1]; agent 40 uM,83±3 %
same,% Binding,[1]; agent 4 mM,38±0.75 %
O=C(O)CN(CCN(CC(=O)O)CC(=O)O)CC(=O)O [EDTA],effect on R,"[3]; 3 mM alone, over the described time frame (up to 4 hrs)",no effect on R
"CC(=O)Nc1ccc(C=Cc2ccc(N=C=S)cc2S(=O)(=O)O)c(S(=O)(=O)O)c1 [SITS, 4-acetamido-4'-isothiocyano-2,2'-stilbene disulfonate]",% Binding,[1]; agent 40 uM,77±3 %
same,% Binding,[1]; agent 4 mM,26±3 %
same,% Binding,[1]; agent 8 mM,20±3 %
same,recovery of R,[4],75±3%
same,R declined to,"[3]; calcium-free solution (3 mM EDTA) with 4 mM SITS, over 2 hr",68±3%
"O=S(=O)(O)OC[C@H]1O[C@@](COS(=O)(=O)O)(O[C@H]2O[C@H](COS(=O)(=O)O)[C@@H](OS(=O)(=O)O)[C@H](OS(=O)(=O)O)[C@H]2OS(=O)(=O)O)[C@@H](OS(=O)(=O)O)[C@@H]1OS(=O)(=O)O [SOS, sucrose octasulfate]",binding to the extracellular domain of Uvomorulin/E-cadherin / inhibition of Mab binding (in words),[1],dose-dependently binds
same,% Binding,[1]; agent 4 mM,83±0.3 %
same,% Binding,[1]; agent 10 mM,76±0.3 %
same,"protection against acid-induced injury, reversibility",[2],irreversibly protect
